Measured values as given in patent US20210346663A1, “METHODS FOR IMPROVING DRUG EFFICACY” (Nuvaira, Inc., priority 2012, published 2021).

Assay: Pulmonary function after vagus nerve disruption followed by drug administration in patients with obstructive lung disease
Format: in vivo
Settings: drug given after nerve activity-modulating treatment
Text: For two treatments with similar mechanisms of action (e.g., vagus nerve disruption that eliminates or reduces acetylcholine production and pharmacological inhibition of acetylcholine production or release), one would expect that the combination of such treatments would result in less of an improvement than the combination of two treatments with different/complementary mechanisms of action.

CC(C)[N+]1(C)[C@@H]2CC[C@H]1C[C@@H](OC(=O)C(CO)c1ccccc1)C2 (stereo partly shown) [ipratropium bromide]
effect on lung functions of administration after vagus nerve disruption: additive effect
